These results are taken from ChEMBL document CHEMBL3244031, “Synthesis of octanoyl[8-leucyl]angiotensin II, a lipophilic angiotensin antagonist” (J Med Chem, 1977).

Where a SMILES comes first, the peptide text is derived from it. The star is where a group is joined. Octanoyl = CCCCCCCC(=O)*

Series [1] can be described thus: Partition coefficient, log K of the compound in n-BuOH-HOAc-H2O. It is filed as physicochemical.
The test system of series [2] is Rattus norvegicus. The experiment in a line: Antihypertensive activity in iv dosed rat assessed as time required for recovery of angiotensin-2-induced increase in blood pressure. The series is classed as functional, organism-based.
The subject of series [3] is Rattus norvegicus. Kind of series: Increase in blood pressure in iv dosed rat relative to angiotensin-2. The series is classed as functional.
Series [4] is filed under the species Cavia porcellus. The experiment in a line: Antagonist activity at angiotensin 2 receptor in guinea pig ileum assessed as concentration required to reduction of angiotensin-2-induced maximum response by one-half after 15 mins. It is filed as tissue-based.
The target of series [5] is T1, Angiotensin II receptor (Rattus norvegicus) (UniProt P29089+P25095+P35351). Kind of series: Antagonist activity at angiotensin 2 receptor in rat uterus assessed as concentration required to reduce maximum response induced by agonist by one-half after 15 mins. It is filed as tissue-based.
In series [6] the test system is Cavia porcellus. Kind of series: Antagonist activity at angiotensin 2 receptor in guinea pig ileum assessed as time required for recovery of organ's response at 2 X 10^-7 M administered 3 mins prior to angiotensin-2 challenge followed by compound washout at 2 mins post challenge. It is filed as tissue-based.
The species named for series [7] is Cavia porcellus. The experiment in a line: Agonist activity at angiotensin 2 receptor in guinea pig ileum relative to angiotensin-2. The series is classed as tissue-based.
The target of another series is T2, Angiotensin II receptor (Rattus norvegicus, UniProt P29089+P25095+P35351).
T2 sequence (P29089 whole entry): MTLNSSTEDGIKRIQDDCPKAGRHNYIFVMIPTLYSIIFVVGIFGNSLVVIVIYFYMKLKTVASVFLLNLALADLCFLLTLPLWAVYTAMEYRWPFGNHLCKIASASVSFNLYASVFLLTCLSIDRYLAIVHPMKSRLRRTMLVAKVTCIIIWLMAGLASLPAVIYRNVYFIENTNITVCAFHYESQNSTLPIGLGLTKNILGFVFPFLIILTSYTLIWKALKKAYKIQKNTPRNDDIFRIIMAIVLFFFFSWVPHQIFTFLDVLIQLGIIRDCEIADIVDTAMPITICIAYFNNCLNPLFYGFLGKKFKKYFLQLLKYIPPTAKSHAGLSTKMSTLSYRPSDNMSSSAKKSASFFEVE
T2 sequence (P25095 whole entry): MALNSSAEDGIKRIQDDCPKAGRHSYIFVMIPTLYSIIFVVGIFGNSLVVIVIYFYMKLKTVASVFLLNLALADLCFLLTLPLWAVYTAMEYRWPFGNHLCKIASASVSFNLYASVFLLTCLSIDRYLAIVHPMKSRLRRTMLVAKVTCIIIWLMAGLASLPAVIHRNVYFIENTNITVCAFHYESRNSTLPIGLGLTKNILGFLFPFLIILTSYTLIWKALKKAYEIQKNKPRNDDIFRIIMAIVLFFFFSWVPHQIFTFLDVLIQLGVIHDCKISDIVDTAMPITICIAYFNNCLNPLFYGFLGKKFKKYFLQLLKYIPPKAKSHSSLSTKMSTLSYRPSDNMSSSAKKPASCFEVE
T2 sequence (P35351 whole entry): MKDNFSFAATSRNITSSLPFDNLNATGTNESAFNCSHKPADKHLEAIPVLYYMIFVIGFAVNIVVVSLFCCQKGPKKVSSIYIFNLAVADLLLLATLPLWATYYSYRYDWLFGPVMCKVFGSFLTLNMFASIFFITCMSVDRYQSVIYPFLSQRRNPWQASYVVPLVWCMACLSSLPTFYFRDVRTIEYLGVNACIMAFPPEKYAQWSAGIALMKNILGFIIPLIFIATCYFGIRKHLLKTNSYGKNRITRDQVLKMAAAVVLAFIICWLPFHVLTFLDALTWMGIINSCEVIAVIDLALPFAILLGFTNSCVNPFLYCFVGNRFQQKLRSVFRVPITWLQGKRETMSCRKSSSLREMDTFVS
Kind of series: Antagonist activity at angiotensin 2 receptor in rat uterus assessed as inhibition of angiotensin-2-induced effect after 15 mins. The series is classed as tissue-based.

The nature of series [8]: Antagonist activity at angiotensin 2 receptor in guinea pig ileum assessed as inhibition of angiotensin-2-induced effect after 15 mins. It is filed as tissue-based. The note with it: Cavia porcellus, 0.25 h, read-out: pA2 (converted).
Series [9] has as its target T1, Angiotensin II receptor (Rattus norvegicus). The experiment in a line: Agonist activity at angiotensin 2 receptor in rat uterus relative to angiotensin-2. It is filed as tissue-based.
Series [10] has the same target. Kind of series: Antagonist activity at angiotensin 2 receptor in rat uterus assessed as time required for recovery of organ's response at 2 X 10^-7 M administered 3 mins prior to angiotensin-2 challenge followed by compound washout at 2 mins post challenge. It is filed as tissue-based.
The subject of series [11] is Rattus norvegicus. Kind of series: Antihypertensive activity in iv dosed rat assessed as dose required to inhibit angiotensin-2-induced increase in blood pressure. The series is classed as functional.
Series [12] relates to Cavia porcellus. Kind of series: Antagonist activity at angiotensin 2 receptor in guinea pig ileum assessed as time required for recovery of organ's response at 2 X 10^-8 M administered 3 mins prior to angiotensin-2 challenge followed by compound washout at 2 mins post challenge. It is filed as tissue-based.
Series [13] addresses T1, Angiotensin II receptor (Rattus norvegicus). The experiment in a line: Antagonist activity at angiotensin 2 receptor in rat uterus assessed as time required for recovery of organ's response at 2 X 10^-8 M administered 3 mins prior to angiotensin-2 challenge followed by compound washout at 5 mins post challenge. It is filed as tissue-based.

For `CCCCCCCC(=O)N[C@@H](CC(=O)O)C(=O)N[C@@H](CCCNC(=N)N)C(=O)N[C@H](C(=O)N[C@@H](Cc1ccc(O)cc1)C(=O)N[C@H](C(=O)N[C@@H](Cc1cnc[nH]1)C(=O)N1CCC[C@H]1C(=O)N[C@@H](CC(C)C)C(=O)O)[C@@H](C)CC)C(C)C` (Octanoyl-DRVYIHPL-OH), the K in series [1] amounted to 7. The values for the T1/2 (in the series with Rattus norvegicus [2]; with Cavia porcellus [6]; in series [10]) were 12 min, 1.7 min and 6.6 min, respectively. Moreover, the Activity with Rattus norvegicus [3] was found to be 0.1%; in the series listed under Cavia porcellus [7], 0.15%; in [9], 0.21%; in the series with Rattus norvegicus [11], 2.3 ug/min.kg. Also, the pAh is 6.2 in the series listed under Cavia porcellus [4] and 6 in [5]. In addition, the pA2 at Angiotensin II receptor is recorded as 8.42. In series [8], the Kb is 22.9 nM.
H-DRVYIHPL-OH: the K in series [1] amounted to 0.18. Also, the T1/2 stood at 3.8 min in the series on Cavia porcellus [12], 12 min in the series on Rattus norvegicus [2] and 28.1 min in [13]. Also, the Activity in the series on Rattus norvegicus [3] stood at 0.09%; in the series listed under Cavia porcellus [7], 0.016%; in series [9], 0.025%; with Rattus norvegicus [11], 10.2 ug/min.kg. In addition, the results for the pAh (in the series filed under Cavia porcellus [4]; in series [5]) were 7.3 and 6.2, respectively. In addition, the pA2 at Angiotensin II receptor came out at 8.33. The Kb in series [8] was 1.2 nM.

As a reminder, the pA2 is a measure of antagonist potency on a negative log scale.
